Source: patent EP4733310A1, “NOVEL PEPTIDE AND USE THEREOF” (Gemvax & Kael Co., Ltd., priority 2023, dated 2024)
Square brackets hold non-standard residues; d marks the D form. Peptide text beside a SMILES is read from it. pGlu = O=C1CC[C@@H](C(=O)O)N1

Tests used:
[1] = Stability in human plasma (LC-MS, residual peptide); format: in vitro ADME; details: 5 µM, 37 °C, 10, 60 and 240 minutes, FIG. 1
Procedure: GV2001 and GV1001 were each added to human plasma and diluted to a concentration of 5 µM, followed by incubation at 37 °C for 10, 60, and 240 minutes with stirring. The reaction mixture was collected and pretreated by plasma protein precipitation using methanol containing 0.1% formic acid. The resulting supernatants were collected and analyzed by LC-MS under the conditions shown in Table 1 below to determine the percentage of residual peptide relative to the initial peptide amount.

[2] = Pharmacokinetic profile after intravenous administration to rats; format: in vivo; details: Sprague Dawley rats, FIG. 2
Procedure: (§1) To determine the pharmacokinetic profile of GV2001 prepared in Example 1, plasma was collected from rats administered with GV2001. The collected plasma was pretreated by protein precipitation using nine times the volume of methanol containing 0.1% formic acid, followed by centrifugation at 16,100 g for 10 minutes.
GV2001 and GV1001 were administered intravenously (IV) to three Sprague Dawley rats in each group. Blood samples were collected at 0.033, 0.083, 0.17, 0.25, 0.5, 1, and 2 hours after administration. The collected blood samples were centrifuged to separate plasma, pretreated, and analyzed using LC-MS. Pharmacokinetic parameters were calculated using the non-compartmental analysis model of the Phoenix WinNonlin (Pharsight, ver. 6.4, USA) program.

[3] = Pharmacokinetic profile after subcutaneous administration to rats; format: in vivo; details: subcutaneous (SC), Sprague Dawley rats; FIG. 3
Procedure: as §1
GV2001 and GV1001 were administered subcutaneously (SC) to three Sprague Dawley rats in each group. Blood samples were collected at 0.033, 0.083, 0.17, 0.25, 0.5, 1, and 2 hours after administration. The collected blood samples were centrifuged to separate plasma, pretreated, and analyzed using LC-MS. Pharmacokinetic parameters were calculated using the non-compartmental analysis model of Phoenix WinNonlin (Pharsight ver. 6.4, USA).

[4] = test system: 5xFAD mice; assay: Morris Water Maze Test in an Alzheimer's disease mouse model; format: in vivo; details: 2 mg/kg subcutaneous, 3 times/week, 8 weeks
Procedure: An efficacy evaluation of GV2001 based on an Alzheimer's disease animal model was conducted according to Table 3 below. [TABLE 3] [table] 5xFAD mice are a well-established mouse model of Alzheimer's disease, in which amyloid-β is produced in neurons. Amyloid-β accumulation begins at approximately 2 months of age, neuronal damage progresses from around 6 months of age, and impairment in spatial learning ability develops from approximately 9 months of age. The mice were purchased from Jackson Laboratory, and seven-month-old mice obtained through breeding were used in the experiment. […] On day 11, a probe test was performed. […] In addition, the time spent in the target quadrant was increased in the GV1001 and GV2001 groups, confirming improvements in spatial learning ability (FIG. 4C).

[5] = test system: amyloid-β; assay: Immunoblot of hippocampal protein samples with anti-amyloid antibody (6E10); format: in vivo; details: 5xFAD mice, 2 mg/kg subcutaneous, 3 times/week, 8 weeks, FIG. 5
Procedure: (§2) An efficacy evaluation of GV2001 based on an Alzheimer's disease animal model was conducted according to Table 3 below.
(§3) 5xFAD mice are a well-established mouse model of Alzheimer's disease, in which amyloid-β is produced in neurons. Amyloid-β accumulation begins at approximately 2 months of age, neuronal damage progresses from around 6 months of age, and impairment in spatial learning ability develops from approximately 9 months of age. The mice were purchased from Jackson Laboratory, and seven-month-old mice obtained through breeding were used in the experiment.
In order to determine amyloid-β levels in the brains of each group of mice, immunoblotting was performed on mouse hippocampal protein samples using an anti-amyloid antibody (6E10).

[6] = test system: Aβ1-42; assay: Aβ1-42 ELISA of cerebral cortex protein samples; format: in vivo; details: 5xFAD mice, 2 mg/kg subcutaneous, 3 times/week, 8 weeks, FIG. 6
[7] = test system: IL-1β, IL-6, and TNF-α; assay: qRT-PCR of inflammatory cytokine mRNA in hippocampal samples; format: in vivo; details: 5xFAD mice, 2 mg/kg subcutaneous, 3 times/week, 8 weeks, FIG. 7
Procedure: as §2, §3
mRNA levels of cytokines involved in inflammation (IL-1β, IL-6, and TNF-α) were analyzed using qRT-PCR in mouse hippocampal samples.

[8] = test system: amyloid-β plaques; assay: Thioflavin-S staining of brain tissue sections; format: in vivo; details: 5xFAD mice, 2 mg/kg subcutaneous, 3 times/week, 8 weeks
Procedure: as §2, §3
(§4) Mouse brain tissue sections were stained with thioflavin-S and anti-amyloid antibody (6E10) to identify amyloid-β plaques and amyloid-β protein, respectively.

[9] = test system: amyloid-β protein; assay: Anti-amyloid antibody (6E10) staining of brain tissue sections; format: in vivo; details: 5xFAD mice, 2 mg/kg subcutaneous, 3 times/week, 8 weeks; both the cerebral cortex and hippocampus; FIGS. 10 and 11
Procedure: as §2, §3, §4

[10] = test system: microglia; assay: Anti-Iba-1 antibody staining of brain tissue sections (gliosis); format: in vivo; details: 5xFAD mice, 2 mg/kg subcutaneous, 3 times/week, 8 weeks, FIGS. 12 and 13
Procedure: as §2, §3
Mouse brain tissue sections were stained with an anti-Iba-1 antibody, which stains microglia, to analyze the level of gliosis in the mouse brain.

[11] = test system: retinal pigment epithelial cells (ARPE-19); assay: Reactive oxygen species detection with DCF-DA in an H2O2 cell model of age-related macular degeneration; format: cell-based; details: ARPE-19, H2O2 (50 µM), FIG. 14
Procedure: (§5) A cell model of age-related macular degeneration was established by treating the retinal pigment epithelial cell line ARPE-19 with hydrogen peroxide (H2O2) to generate reactive oxygen species.
(§6) The experimental groups were set up according to Table 4 below, and the efficacy of GV2001 was evaluated.
Using 2',7'-dichlorofluorescin diacetate (DCF-DA), a dye for detecting reactive oxygen species, changes in reactive oxygen species levels in retinal pigment epithelial cells (ARPE-19) treated with GV2001 were examined under a fluorescence microscope.

[12] = test system: retinal pigment epithelial cell line ARPE-19; assay: Epithelial-mesenchymal transition (cadherin 1, vimentin; confocal microscope) in an H2O2 cell model of age-related macular degeneration; format: cell-based; details: ARPE-19, H2O2 (50 µM), FIG. 15
Procedure: as §5, §6
The degree of epithelial-mesenchymal transition (EMT), which indicates retinal pigment epithelial cell degeneration, was evaluated by observing changes in cadherin 1, an epithelial cell marker, and vimentin, a mesenchymal cell marker, using a confocal microscope.

[13] = H2O2 for 2 hours then post-treatment for 24 hours, high-dose group
[14] = pretreatment for 2 hours then H2O2 for 24 hours, low-dose group

In the case of `CC[C@H](C)[C@H](NC(=O)[C@H](Cc1ccccc1)NC(=O)[C@H](CCCNC(=N)N)NC(=O)[C@H](CC(C)C)NC(=O)[C@H](CCCNC(=N)N)NC(=O)[C@H](CO)NC(=O)[C@@H](NC(=O)[C@H](CC(C)C)NC(=O)[C@H](CC(C)C)NC(=O)[C@H](C)NC(=O)[C@@H]1CCCN1C(=O)[C@H](CCCNC(=N)N)NC(=O)[C@H](C)NC(=O)[C@H](CCC(=O)O)NC(=O)[C@@H]1CCC(=O)N1)[C@@H](C)O)C(=O)N1CCC[C@H]1C(=O)N[C@@H](CCCCN)C(N)=O` [GV2001] ([pGlu]EARPALLTSRLRFIPK-NH2), the “percentage of residual peptide relative to the peptide amount before reaction” value [1] is reported as “higher at each time point than that of GV1001”, the “AUCt of GV2001 relative to GV1001” value [2] is reported as “more than four times higher” and the AUC(0-t) ([2]; rat, plasma, sampling up to 2 hours) is reported as 107 ng·h/mL. The “in vivo stability (remaining in the body without degradation)” value [3] was “greater in vivo stability than GV1001”, the “latency to locate the hidden platform” value ([4]; 10-day training period, FIG. 4A) was “marked improvements in latency” and the “number of platform-zone crossings” value ([4]; probe test on day 11, FIG. 4B) was “exhibited improvements”. The “time spent in the target quadrant” value ([4]; probe test on day 11, FIG. 4C) was “increased”, the “amyloid-β levels (immunoblot, 6E10)” value [5] was “reduction” and the “amyloid-β levels (Aβ1-42 ELISA)” value [6] was “reduced level of amyloid-β protein”. The “mRNA levels of cytokines involved in inflammation (IL-1β, IL-6, and TNF-α)” value [7] was “greater reduction in cytokine expression compared to the 5xFAD group”, the “amyloid-β plaque deposition (thioflavin-S)” value ([8]; cerebral cortex, FIG. 8) was “reduction in amyloid-β plaque deposition” and the “amyloid-β plaque deposition (thioflavin-S)” value ([8]; hippocampus, FIG. 9) was “substantially reduced plaque deposition”. The “amyloid-β protein levels (6E10 antibody staining)” value [9] was “more pronounced decrease in amyloid-β protein levels”, the “gliosis levels (microglia staining, anti-Iba-1)” value [10] was “more pronounced decrease in gliosis levels” and the “DCF-DA fluorescence expression (reactive oxygen species)” value [11, 13] was “decreased”. The “DCF-DA fluorescence expression (reactive oxygen species)” value [11, 14] was “decreased”, the “progression of EMT (cadherin 1, vimentin)” value [12, 13] was “reduced the progression of EMT” and the “progression of EMT (cadherin 1, vimentin)” value [12, 14] was “reduced the progression of EMT”.
